The test deals with CEM cells HIV-1 protection, formazan growth assay. Description: NCI AIDS Antiviral Assay. As to conditions: for IC50: measured here: growth of uninfected CEM cells. Summed up:
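CEM (human) cells, HIV-1 infected vs uninfected, 5-point dosing, formazan growth read-out. Retest threshold 50% protection.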

Calls of active or inactive are those of the source.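 Rule for the calls: active = compounds giving half or more protection of infected cells from virus-caused growth loss, again on retest; inactive = the rest.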

Take `COc1ccccc1C1ON=C(c2ccc([N+](=O)[O-])cc2)N1C12CC3CC(CC(C3)C1)C2` (stereo not given): the EC50 is > 200 µM and the IC50 was > 200 µM.

On to `Cc1ccc(/S(Cc2ccccc2)=N\S(=O)(=O)c2ccc(C)cc2)cc1` (stereo not given), for which the EC50 was > 67.6 µM and the IC50 was > 67.6 µM. `O=S(=O)(O)c1ccc2c(c1)Sc1cc(S(=O)(=O)O)ccc1O2`: the result was inactive. Still for that read-out and setting: the entry for `NC(=O)C1C(=O)Oc2cccnc21` (stereo not given) is “inactive”. Consider `CCCCCCCCCCCCCCCCOP(=O)(O)OP(=O)(O)OCC1OC(n2ccc(N)nc2=O)CC1O` (stereo not given), for which the EC50 is > 100 µM and the IC50 was > 100 µM. For `O=C(CSc1nnc(Cc2ccccc2)o1)Nc1ccc([N+](=O)[O-])cc1`, the EC50 is > 97.7 µM and the IC50 came out at 95.5 µM. Taken in the same sequence, the figures for `COC(OC)c1cccc2c1C(=O)CCC1(CC2)OCCCCO1` were > 200 µM and > 200 µM.

Regarding `Cc1ccc(N(C(=O)CC(=O)N2N=C(c3ccccc3)C(N=Nc3ccc([N+](=O)[O-])cc3)C2=O)C(=O)c2ccc(Cl)cc2)cc1` (stereo not given), the EC50 is > 11.5 µM and the IC50 is 9.12 µM. For `Cc1cc2c(O)c(c1)COCc1cc(C)cc(c1O)COCc1cc(C)cc(c1O)COC2`, the EC50 was > 200 µM and the IC50 is 138 µM. The like results for `CCCN=C1NC(C)=CSC(Nc2ccccc2)=C1C#N` were, in that order, > 200 µM and > 200 µM. As for `CN1CCCC1=NC#N`, the EC50 is > 200 µM and the IC50 was > 200 µM.

With `O=C(O)c1cc[c]([Sb](=[O])([OH])[OH])cc1`, the EC50 is 29.5 µM and the IC50 is > 200 µM.

Turning to `COC(=O)CCC(C)C1CCC2C3CCC4CC5CCC4C3(CO5)C(=O)C(Br)C12C` (stereo not given), the EC50 was > 10.7 µM and the IC50 is > 10.7 µM. On to `COC(=O)[C@@H]1CN(C(=O)c2ccccc2)C(=O)N1`, for which the EC50 is > 200 µM and the 50% inhibitory concentration (IC50) is > 200 µM.

For the compound `Cc1cc(C)c2c(c1)CC(C)(C)C(=O)OC2=O`, the EC50 is > 112 µM and the half-inhibitory concentration (IC50) was > 112 µM. As for `O=C(c1ccccc1)C1C(c2ccccc2)SC(c2ccccc2)CC1(O)c1ccccc1` (stereo not given), the EC50 is > 151 µM and the concentration for half-maximal inhibition (IC50) was determined as 20.9 µM. Taken in the same sequence, the figures for `Cc1ccc(NC(=O)C(=O)C(C#N)c2nc(-c3ccc(-c4ccccc4)cc3)cs2)c(C)c1` (stereo not given) were > 66.1 µM and > 66.1 µM. As for `O=[N+]([O-])c1ccc2c(c1)OCCOCCOc1ccc([N+](=O)[O-])cc1OCCOCCO2`, the result was inactive. On to `CCN(CC)c1c(C)nnc2c(-c3ccccc3)cnn12`, for which the EC50 is > 18.6 µM and the IC50 was > 18.6 µM.

Turning to `C=C1c2nc3ccccc3n2C=C(c2ccc(Cl)cc2)N1c1ccc(OC)cc1`, the EC50 is > 200 µM and the half-maximal inhibitory concentration (IC50) stood at 18.6 µM.

As to `COC(=O)C1C(C(=O)OC)C2N(c3ccccc3)C=NN2C1C(=O)c1ccccc1` (stereo not given), the EC50 is 182 µM and the IC50 is > 200 µM. The like results for `Cn1c(-c2ccccc2)cc(-c2cccs2)c1-c1ccsc1` were, in that order, > 200 µM and 182 µM. On to `c1ccc2c(c1)n1c(N3CCOCC3)[n+]3ccccc3c1c1c3cccc[n+]3c(N3CCOCC3)n21`, for which the EC50 is 123 µM and the IC50 was determined as 145 µM. As for `O=C1/C(=C\c2ccccc2)C2/C(=C\c3ccccc3)C(=O)/C(=C\c3ccccc3)C2/C1=C\c1ccccc1` (stereo not given), the result was inactive. As for `O=C(O)CCCc1ccc(N(CCCl)CCCl)cc1`, the EC50 was > 200 µM and the IC50 was 14.8 µM. Taken in the same sequence, the figures for `O=Nc1ccccc1` were > 200 µM and > 200 µM. Take `N#Cc1cn(-c2c3ccccc3nc3ccccc23)c(=O)[nH]c1=O`: the EC50 is > 214 µM and the half-maximal inhibitory concentration (IC50) amounted to 0.288 µM. `CCN1C[C@]2(COC)CCC(OC(=O)c3ccc(OC)cc3)C34[C@@H]5C[C@@H]6C(OC(C)=O)[C@@H]5[C@](OC(C)=O)(C[C@@H]6OC)[C@@H](C(OC)[C@@H]32)[C@H]14` (stereo not given in full): the outcome was inactive. With `O=C1OC(c2ccccc2)=N/C1=C\c1ccccc1Cl`, the EC50 is > 35.5 µM and the half-inhibitory concentration (IC50) is > 35.5 µM. As for `N#Cc1c(C#N)c(SSc2c(C#N)c(C#N)c(N)n2-c2ccccc2)n(-c2ccccc2)c1N`, the EC50 was > 20 µM and the half-inhibitory concentration (IC50) was 1.95 µM. The like results for `CCc1cccc(C)c1N1C(=O)C(=O)C(c2nc3ccccc3o2)C(=O)C1=O` were, in that order, > 331 µM and 66.1 µM. For `CC1(C)C2CCC1C(=O)[C@@]1(C=CC(=O)CC1)C2` (stereo not given in full), the EC50 is > 200 µM and the IC50 was > 200 µM. In the case of `c1ccc(CN2CCc3[nH]c4ccccc4c3C2)cc1`, the EC50 is > 200 µM and the IC50 amounted to 21.9 µM. `C=CCC1(C#N)C(=S)NC2=C(C(=O)CC(C)(C)C2)C1c1ccccc1` (stereo not given): the EC50 was > 200 µM and the half-inhibitory concentration (IC50) is > 200 µM.

In the case of `COC1/C=C/OC2(C)Oc3c(C)c(O)c4c(O)c(cc(OCC(=O)N(C)C5CCCCC5)c4c3C2=O)NC(=O)/C(C)=C/C=C/C(C)C(O)C(C)C(O)C(C)C(OC(C)=O)C1C` (stereo not given), the EC50 was > 200 µM and the IC50 stood at 12.3 µM. Regarding `C=CCCCCCCCCCP(=O)(c1ccccc1)c1ccc2c(c1)OCCOCCOCCOCCO2` (stereo not given), the EC50 was > 200 µM and the half-inhibitory concentration (IC50) is 1.7 µM. The like results for `Cc1nc2cn3c(c2c(=O)[nH]1)CCCCC3` were, in that order, > 200 µM and > 200 µM. As for `Nc1cc(Cl)ccc1N1C(=O)C=CC1=O`, the outcome was inactive. For `COC1(OC)CC(CO)(CNc2cc(Cl)nc(N)n2)C1`, the EC50 is > 200 µM and the half-maximal inhibitory concentration (IC50) was > 200 µM. Consider `C=C1C[C@]2(C)c3ccccc3NC(=O)[C@H]12`, for which the EC50 was 162 µM and the IC50 was > 200 µM. With `COc1ccc(C(=O)C2CC3(CCC2(O)c2ccc(OC)cc2)CC(=O)Nc2ccccc2C3=O)cc1` (stereo not given), the EC50 is > 200 µM and the 50% inhibitory concentration (IC50) is 72.4 µM. Taken in the same sequence, the figures for `O=C1COC(c2ccccc2O)=NN1CCCl` were > 141 µM and > 141 µM. Consider `CCn1ccnc1.CCn1ccnc1.O=C([O-])CC(O)C(=O)[O-].[Pt+2]` (stereo not given), for which the EC50 is > 200 µM and the half-maximal inhibitory concentration (IC50) was > 200 µM. As to `CC1=C2C(O)C(C(C)CO)C(O)CC2(C)C(O)CC1` (stereo not given), the outcome was inactive. For the compound `CCOC(=O)c1ccc(N=C2SC(=S)N(c3ccc(F)cc3)C2=Nc2ccc(C(=O)OCC)cc2)cc1`, the EC50 is > 20 µM and the IC50 was determined as 6.76 µM. Taken in the same sequence, the figures for `COC(=O)C1=C(C(=O)OC)P2(C)(C)SC(=S)N2C1(c1ccccc1)c1ccccc1` were > 200 µM and > 200 µM. Take `CC(=O)NC(CCCCN(Cc1ccccc1)C(=O)N(C)N=O)C(=O)NCc1ccccc1` (stereo not given): the EC50 is > 110 µM and the IC50 is 93.3 µM. As for `CS(=O)(=O)CCOC(=O)ON1C(=O)CCC1=O`, the EC50 is > 200 µM and the concentration for half-maximal inhibition (IC50) worked out at 26.9 µM.

For `O=C(CC(=O)N1N=C(N2c3ccccc3Sc3ccccc32)CC1c1ccccc1)Nc1ccccc1Cl` (stereo not given), the EC50 is > 200 µM and the concentration for half-maximal inhibition (IC50) was > 200 µM. In the case of `CCCCCCCCCCCC1N=C(N)NC(CCCO)=C1C(=O)OC` (stereo not given), the EC50 was > 200 µM and the 50% inhibitory concentration (IC50) was determined as 3.47 µM. As to `CCn1c(=O)c2c3cc(OC(C)=O)ccc3oc2c2ccc(OC(C)=O)cc21`, the EC50 is > 200 µM and the half-inhibitory concentration (IC50) worked out at 53.7 µM. As to `c1cnc2c(c1)-n1cccc1C1(CCCCC1)NN2`, the EC50 is > 200 µM and the IC50 is > 200 µM.

On to `O=S(OCC1COS(=O)O1)OCC1COS(=O)O1` (stereo not given), for which the EC50 is > 776 µM and the IC50 is 77.6 µM. Taken in the same sequence, the figures for `COC(=O)c1ccc(NC(=O)O/N=C(\Cl)C(C)C)cc1` were > 20 µM and 3.63 µM.

Take `CCOC(=O)/C(=C/c1cn(C(C)=O)c2ccccc12)P(=O)(OC)OC`: the EC50 is > 200 µM and the 50% inhibitory concentration (IC50) is 72.4 µM.

As for `c1ccc(Nc2nn3c(CCCCCCCCc4nnc5sc(Nc6ccccc6)nn45)nnc3s2)cc1`, the EC50 is > 200 µM and the IC50 came to 39.8 µM. The like results for `Nc1nc(N)c2nnsc2n1` were, in that order, > 200 µM and > 200 µM. As for `COc1ccc2c(c1)CCCN1Cc3cc(OC)c(OC)cc3CC21` (stereo not given), the EC50 was > 200 µM and the concentration for half-maximal inhibition (IC50) amounted to 87.1 µM. The like results for `COC(=O)/C=C/c1cc(OC)c2c(c1)[C@H](C(=O)OC)[C@@H](c1ccc(O)c(OC)c1)O2` were, in that order, > 20 µM and 1.02 µM. The like results for `Cc1cc2nnn(C3CCCO3)c2cc1C` (stereo not given) were, in that order, > 200 µM and > 200 µM.

`CC(=O)/C=C(/C=N/O)c1ccccc1`: the EC50 is > 200 µM and the IC50 is > 200 µM. For the compound `CC1=NN(c2ccccc2)C(=O)C1=C1SCCCS1`, the EC50 was > 46.8 µM and the half-maximal inhibitory concentration (IC50) was > 46.8 µM. On to `COC(=O)[C@H](CCSC)NC(=O)N[C@H](C)c1ccccc1`, for which the EC50 is > 200 µM and the 50% inhibitory concentration (IC50) is > 200 µM. For `Cn1c(=O)c2c(ncn2CCNC(CO)C(O)c2ccc([N+](=O)[O-])cc2)n(C)c1=O` (stereo not given), the EC50 was > 200 µM and the IC50 was > 200 µM. As for `COc1cc2c(c(C(C)(C)C)c1)OC1(O)C2=CC(=O)C=C1C(C)(C)C` (stereo not given), the EC50 is > 20 µM and the concentration for half-maximal inhibition (IC50) was 0.372 µM. Taken in the same sequence, the figures for `O=C1/C(=C/c2ccc(OCc3ccccc3)cc2)CCC/C1=C\c1ccc(OCc2ccccc2)cc1` were > 2.95 µM and > 2.95 µM. On to `Cc1nc(Nc2ccc(Cl)cc2)sc1C(=O)Nc1cccc2c(=O)[nH][nH]c(=O)c12`, for which the EC50 was > 17 µM and the IC50 was > 17 µM. Turning to `CC1N=C(SCc2c(F)cccc2Cl)N2C(C)N=C(SCc3c(F)cccc3Cl)N12` (stereo not given), the EC50 is > 20.4 µM and the IC50 was > 20.4 µM. For the compound `COC(=N)CCNC(=O)C(O)C(O)C(=O)NCCC(=N)OC` (stereo not given), the EC50 is > 646 µM and the IC50 is > 646 µM. For the compound `O=C(C(c1ccccc1)c1ccccc1)C(O)(c1ccccc1)c1ccccc1`, the EC50 was 30.9 µM and the 50% inhibitory concentration (IC50) was 34.7 µM. The like results for `CCn1c2c(c3ccccc31)C(c1ccccc1)CC1C(=O)N(c3ccccc3)C(=O)C21` (stereo not given) were, in that order, > 11.7 µM and > 11.7 µM.
